From patent US10363263B2, “Anti-aging compositions and methods for using same” (Prescient Pharma LLC, priority 2015, dated 2019)

Columns and labels:
[1] = tested on: normal human colon fibroblast cell line CCD 841 CoN (CRL-1790, ATCC); assay: Senescence beta-galactosidase staining of aged normal human colon fibroblasts (Examples 1 and 2); type: cell-based; details: 48 hours; for effect on beta-galactosidase staining in comparison with non-treated controls: monotherapy, 0.15 μM lithium carbonate or 0.25 mM glycyrrhizic acid; for visible positive beta-galactosidase staining (FIGS. 1-4): visual, light microscope 100×, 0.15 μM lithium carbonate and/or 0.25 mM glycyrrhizic acid
Protocol: Aging-associated beta-galactosidase is widely used as a biomarker of senescence. Here we investigated senescence-associated-beta-galactosidase activity of human colon fibroblast cells by visual assessment.
In this Example, the effect of treatment with lithium and glycyrrhizic acid separately, and as a fixed combination, was evaluated on normal human colon fibroblast cell line CCD 841 CoN (CRL-1790, ATCC).
Group 4 (flasks 10-12, control), the medium was changed to fresh compete EMEM medium without drugs as controls.
FIGS. 1-4 show pictures of the staining results for each of the groups, respectively.
Digital pictures showing the staining results for each of the 12 flasks were then independently examined and scored for percentage of area of green (positive) staining based on pixels, with and without background subtraction.
Higher values reflect more intensive green staining which corresponds to more aged cells.
Group#9 contained complete EMEM medium with glycyrrhizic acid 0.25 mM.
Group#10 contained complete EMEM medium only and was used as a control.
FIGS. 6-15 show pictures of the staining results for each of the groups, respectively.

[2] = tested on: wild-type N2 Bristol strain of C. elegans; assay: C. elegans longevity study (Example 4); type: in vivo; details: for Restricted mean Days (survival): control 15.53; for longevity effect: monotherapy
Protocol: In this fourth Example, the effect of treatment with lithium and Glycyrrhizic acid separately, and as a fixed combination, was further evaluated on the wild-type N2 Bristol strain of C. elegans. Worm stocks were maintained on nematode growth medium (NGM) dishes containing 10 μg/mL cholesterol (Cat. No. C8667; Sigma-Aldrich, Saint Louis, Mo., USA). Dishes were seeded with OP50 Escherichia coli as a food source. Twelve polystyrene petri dishes (35 mm diameter) were prepared by filling with NGM agar containing […] cholesterol, and 25 μM 5-Fluoro-2′-deoxyuridine to suppress reproduction (FUDR; Cat. No. F0503; Sigma-Aldrich, Saint Louis, Mo., USA). The dishes were seeded with OP50 Escherichia coli as a food source. Duplicate dishes were used for each group. The treatment drug was dissolved in deionized water, and added to the dishes for the groups as explained below: […] Group#5: Glycyrrhizic acid in concentration of 0.25 mM Group#6: untreated (control) NGM-agar treatment plates containing cholesterol (10 μg/mL) and 25 μM 5-Fluoro-2′-deoxyuridine (FUDR; Cat. No. F0503; Sigma-Aldrich, Saint Louis, Mo., USA) to suppress reproduction. […] The survival data for the various groups are also depicted in FIG. 17.

[3] = lithium carbonate 15 or 0.15 μM as in the label, Ga = glycyrrhizic acid 0.25 mM
[4] = lithium carbonate 15 or 0.15 μM as in the label, Ga = glycyrrhizic acid 0.25 mM, listed as Li0.15 uM
[5] = lithium carbonate 15 or 0.15 μM as in the label, Ga = glycyrrhizic acid 0.25 mM, listed as Li15 uM

Row | Compound | effect on beta-galactosidase staining in comparison with non-treated controls [1] | visible positive beta-galactosidase staining (FIGS. 1-4) [1] | Age in days at 50% mortality [2, 3] | Age in days at 75% mortality [2, 3] | Age in days at 90% mortality [2, 3] | Age in days at 100% mortality [2, 3] | Restricted mean Days (survival) [2, 4] | Restricted mean Days (survival) [2, 5] | Age in days at 25% mortality [2, 4] | Age in days at 25% mortality [2, 5] | longevity effect [2]
1 | O=C([O-])[O-].[Li+].[Li+] [lithium carbonate] | did not appear to have significant effect | stained positively | 15 days | 16 days | 18 days | 19 days | 14.88 days | 14.56 days | 13 days | 14 days | not observed
2 | CC1(C)[C@@H](O[C@H]2O[C@H](C(=O)O)[C@@H](O)[C@H](O)[C@H]2O[C@@H]2O[C@H](C(=O)O)[C@@H](O)[C@H](O)[C@H]2O)CC[C@]2(C)[C@H]3C(=O)C=C4[C@@H]5C[C@@](C)(C(=O)O)CC[C@]5(C)CC[C@@]4(C)[C@]3(C)CC[C@@H]12 [glycyrrhizic acid, (3β,20β)-20-carboxy-11-oxo-30-norolean-12-en-3-yl 2-O-β-D-glucopyranuronosyl-α-D-glucopyranosiduronic acid] | did not appear to have significant effect | stained positively |  |  |  | 20 days |  |  |  |  | not observed
